Assay results from patent US20110015371A1 (Vertex Pharmaceuticals Incorporated, priority 1994, published 2011).

How the values were obtained:
[1] = system: Human Peripheral Blood Mononuclear Cells (PBMC) or Enriched Adherent Mononuclear Cells; test: Cell assay: IL-1β assay with human PBMC or enriched adherent mononuclear cells; type: cell-based; settings: LPS-stimulated cells, mature IL-1β in supernatant by ELISA
Method in brief: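 Human PBMC (suspension at 6×10^6 cells/ml) or adherent monocytes enriched by 1 h plating (2.5−3.0×10^5 cells/well) were stimulated with 5 ng/ml LPS (final) plus compound (5-6 dilutions, 0.1% DMSO final) for 16-18 hr at 37° C. Mature IL-1β in supernatants quantified by ELISA; duplicate cultures, duplicate ELISAs.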

[2] = target: T1, ICE (Homo sapiens, UniProt P29466); test: Enzyme assay with UV-visible substrate (Succinyl-Tyr-Val-Ala-Asp-pNitroanilide); type: biochemical
T1 sequence (P29466 120-297 limits assumed): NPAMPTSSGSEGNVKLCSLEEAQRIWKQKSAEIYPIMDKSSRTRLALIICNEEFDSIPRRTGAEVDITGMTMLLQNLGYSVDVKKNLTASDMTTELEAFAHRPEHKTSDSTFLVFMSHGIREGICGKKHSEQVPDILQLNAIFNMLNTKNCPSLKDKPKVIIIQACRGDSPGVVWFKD
T1 sequence (P29466 317-404 limits assumed): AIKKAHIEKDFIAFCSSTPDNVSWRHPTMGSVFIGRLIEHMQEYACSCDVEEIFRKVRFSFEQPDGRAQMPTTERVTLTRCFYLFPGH
Protocol: 1. Enzyme Assay with UV-Visible Substrate
This assay is run using an Succinyl-Tyr-Val-Ala-Asp-pNitroanilide substrate. Synthesis of analogous substrates is described by L. A. Reiter (Int. J. Peptide Protein Res. 43, 87-96 (1994)). The assay mixture contains:
The visible ICE assay is run in a 96-well microtiter plate. Buffer, ICE and DMSO (if inhibitor is present) are added to the wells in the order listed. The components are left to incubate at room temperature for 15 minutes starting at the time that all components are present in all wells. The microtiter plate reader is set to incubate at 37° C. After the 15 minute incubation, substrate is added directly to the wells and the reaction is monitored by following the release of the chromophore (pNA) at 405-603 nm at 37° C. for 20 minutes. A linear fit of the data is performed and the rate is calculated in mOD/min. DMSO is only present during experiments involving inhibitors, buffer is used to make up the volume to 100 μl in the other experiments.
For determination of enzyme inhibition constants (Ki) or the mode of inhibition (competitive, uncompetitive or noncompetitive), the rate data determined in the enzyme assays at varying inhibitor concentrations are computer-fit to standard enzyme kinetic equations (see I. H. Segel, Enzyme Kinetics, Wiley-Interscience, 1975).

[3] = Homo sapiens, PBMC, Example 4 table
[4] = Homo sapiens, PBMC, Example 6 table

| Compound | Ki ([2]; Example 6 table) [nM] | IC50 [1, 4] [nM] | also measured |
| --- | --- | --- | --- |
| CC(=O)N[C@@H](Cc1ccc(O)cc1)C(=O)N[C@H](C(=O)N[C@@H](C)C(=O)N[C@H](CC(=O)O)C(=O)COCc1c(Cl)cccc1Cl)C(C)C (mixture of isomers) [Compound 84b, (R,S)N-[N-(Acetyl)tyrosinyl-valinyl-alaninyl]-3-amino-5-(2,6-dichlorophenylmethyloxy)-4-oxo-pentanoic acid] |  |  | IC50 [1, 3]: 500 nM; melting point: 165 to 168 °C |
| C[C@H](NC(=O)c1nc(Cc2ccccc2)c[nH]1)C(=O)N[C@H](C=O)CC(=O)O [Compound 20b, (3S)3-[N-(4-Benzylimidazole-2-carbonyl)-L-alaninyl]amino-4-oxobutanoic acid] |  |  | IC50 [1, 3]: 16400 nM; melting point: 113 to 115 °C |
| C[C@H](NC(=O)c1ncc(CCc2ccccc2)[nH]1)C(=O)N[C@H](C=O)CC(=O)O [Compound 20c, (3S)3-{N-[4-(2-Phenylethyl)imidazole-2-carbonyl]-L-alaninyl}amino-4-oxobutanoic acid] |  |  | melting point: 102 to 104 °C |
| O=C[C@H](CC(=O)O)NC(=O)[C@@H]1CCCN1C(=O)c1nc(CCc2ccccc2)c[nH]1 [Compound 21c, (3S)3{N-[4-(2-Phenylethyl)imidazole-2-carbonyl]-L-prolinyl}amino-4-oxobutanoic acid] |  |  | melting point: 101 to 103 °C |
| CC(C)[C@H](NC(=O)OCc1ccccc1)C(=O)N[C@@H](C)C(=O)N[C@@H](CC(=O)O)C(=O)c1ncc(-c2ccccc2)o1 [Compound 145] | 340 | 8500 |  |
| CC(C)[C@H](NC(=O)OCc1ccccc1)C(=O)N[C@@H](C)C(=O)N[C@@H](CC(=O)O)C(=O)c1ncc(-c2c(Cl)cccc2Cl)o1 [Compound 146] | 160 | 3800 |  |
| CC(C)[C@H](NC(=O)OCc1ccccc1)C(=O)N[C@@H](C)C(=O)N[C@@H](CC(=O)O)C(=O)c1ncc(-c2ccccc2Cl)o1 [Compound 147] | 260 | 8500 |  |
| CC(C)[C@H](NC(=O)OCc1ccccc1)C(=O)N[C@@H](C)C(=O)N[C@@H](CC(=O)O)C(=O)c1nccs1 [Compound 148] | 6300 | 30000 |  |
| CC(C)[C@H](NC(=O)OCc1ccccc1)C(=O)N[C@@H](C)C(=O)N[C@@H](CC(=O)O)C(=O)c1cocn1 [Compound 149] | 14000 | > 30000 |  |
| CC(C)[C@H](NC(=O)OCc1ccccc1)C(=O)N[C@@H](C)C(=O)NC(CC(=O)O)C(=O)c1ncc(-c2ccccc2)[nH]1 (some centres unmarked) [Compound 150] | 10000 | 30000 |  |
| CC(C)[C@H](NC(=O)OCc1ccccc1)C(=O)N[C@@H](C)C(=O)NC(CC(=O)O)C(=O)c1ncc[nH]1 (some centres unmarked) [Compound 151] | 13000 | 30000 |  |
| CC(=O)N[C@@H](Cc1ccc(O)cc1)C(=O)N[C@H](C(=O)N[C@@H](C)C(=O)N[C@@H](CC(=O)O)C(=O)c1ncc(-c2c(Cl)cccc2Cl)s1)C(C)C [Compound 154] | 42 | 2400 |  |
| CC(=O)N[C@@H](Cc1ccc(O)cc1)C(=O)N[C@H](C(=O)N1C[C@H](Oc2ccccc2)C[C@H]1C(=O)N[C@@H](CC(=O)O)C(=O)c1ncc(-c2c(Cl)cccc2Cl)o1)C(C)C [Compound 156] | 1 | 2700 |  |
| COc1cccc2nc(C(=O)[C@H](CC(=O)O)NC(=O)[C@@H]3C[C@@H](Oc4ccccc4)CN3C(=O)[C@@H](NC(=O)[C@H](Cc3ccc(O)cc3)NC(C)=O)C(C)C)oc12 [Compound 159] | 1.7 | 8000 |  |
| CC(=O)N[C@H](C(=O)N1C[C@H](Oc2ccccc2)C[C@H]1C(=O)N[C@@H](CC(=O)O)C(=O)c1ncc(-c2c(Cl)cccc2Cl)o1)C(C)C [Compound 160] | 145 | 2250 |  |
| CC(=O)N[C@@H](Cc1ccc(O)cc1)C(=O)N[C@H](C(=O)N[C@@H](C)C(=O)N[C@@H](CC(=O)O)C(=O)c1ncc(-c2c(Cl)cccc2Cl)o1)C(C)C [Compound 163] | 2.8 | 1200 |  |
| (3S)t-Butyl N-(N-acetyl-(S)-tyrosinyl-(S)-valinyl-(S)-alaninyl)-3-amino-4-(2-(4-methoxybenzoxazolyl))-4-oxobutanoate [Compound 69b] |  |  | Ki ([2]; Example 4 table): 50 nM; IC50 ([1]; Example 4 table): 745 nM |
